Assay [1] concerns the target EP300 (Homo sapiens, UniProt Q09472). As to the kind of experiment: Histone acetyltransferase inhibitory activity against EP300 (Test Example 1). It counts as biochemical. To be noted: 50 ng/mL EP300, 2 μM Acetyl-CoA, 100 nM Histone H4(1-25)-GSGSK (Biotin), 28° C. for 1 hour. In short, it runs like this:
(§1)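 Enzyme (50 ng/mL EP300 or 125 ng/mL CREBBP) incubated 1 h at 28° C with 2 μM acetyl-CoA, 100 nM biotinylated histone H4(1-25) peptide and 10 to 0.0006 μM compound in pH 8.0 Tris buffer with 330 nM trichostatin A, 1% DMSO. Reaction stopped with Lys-CoA; acetylation read by TR-FRET (Eu-anti pan-Ac/Sta-ULight) after overnight room-temperature incubation.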

Assay [2] concerns the target CREBBP (Homo sapiens, UniProt Q92793). As to the kind of experiment: Histone acetyltransferase inhibitory activity against CREBBP (Test Example 1). It counts as biochemical. Particulars: 125 ng/mL CREBBP, 2 μM Acetyl-CoA, 100 nM Histone H4(1-25)-GSGSK (Biotin), 28° C. for 1 hour. The method in brief: as §1
For assay [3], the system named is H3K27Ac. As to the kind of experiment: Intracellular H3K27Ac inhibitory activity in LK2 cells (Test Example 2). It counts as cell-based. To be noted: Homo sapiens, LK-2, cultured with compound for 3 hours, read-out: Test Example 2 H3K27Ac Inhibition (LK2) IC50. In short, it runs like this:
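Human squamous lung cancer LK2 cells (40000/well) cultured overnight at 37 °C, 5% CO2 before treatment. After paraformaldehyde fixation, peroxide quench and blocking, H3K27 acetylation detected with anti-acetyl-H3K27 rabbit mAb (4 °C overnight) and HRP secondary; chemiluminescent read-out.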

The test system of assay [4] is LK2 cells. As to the kind of experiment: Cell growth inhibitory activity, LK2 cells (Test Example 3). Format: cell-based. Particulars: Homo sapiens, LK-2, 72 h, cultured for 3 days, CellTiter-Glo. In short, it runs like this: (§2)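 LK2 and TE-8 […] cells in RPMI 1640 with 10% FBS exposed to 10-point 4-fold dilutions (10 mM to 38 nM, stock series) for 3 days. ATP luminescence (CellTiter-Glo 2.0) at day 0 and day 3 gave survival as (T3−C0)/(C3−C0)×100; GI50 from semilog plot.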
On the technique in general: ATP-based viability assays read luminescence as a measure of living cells.

The subject of assay [5] is TE-8 cells. As to the kind of experiment: Cell growth inhibitory activity, TE-8 cells (Test Example 3). Particulars: Homo sapiens, 72 h, cultured for 3 days, CellTiter-Glo. Format: cell-based. In short, it runs like this:
as §2

Assay [6] relates to LK2 cells. As to the kind of experiment: Antitumor activity in LK2 cell subcutaneous transplant model (Test Example 4). To be noted: dose 6.25 mg/kg/day, test end day. It counts as in vivo, female BALB/c-nu/nu mice. The source says:
[Test Example 4] Evaluation of Antitumor Activity in LK2 Cell Subcutaneous Transplant Model
LK2 cells were transplanted at a rate of 2×10^6 cells/head subcutaneously into a right abdominal site of each of female BALB/c-nu/nu mice, and 7 days after, the mice were grouped into groups each consisting of 5 mice based on an estimated tumor volume (longer diameter×shorter diameter×shorter diameter/2) and the weight. The LK2 cells were purchased from Human Science Research Resources Bank. […] The estimated tumor volume of each individual was measured from the day of grouping until 18 days after the transplantation (test end day).
(§3) The antitumor activity in LK2 cell subcutaneous transplant model of Test Example 4, the antitumor activity in TE-8 cell subcutaneous transplant model of Test Example 5, the antitumor activity in KARPASS-422 cell subcutaneous transplant model of Test Example 6, the antitumor activity in NMC10-15 cell subcutaneous transplant model of Test Example 7, and the antitumor activity in VCaP cell subcutaneous transplant model of Test Example 8 were respectively calculated on the end dates of the tests in accordance with the following equation: Tumor Growth Inhibition Rate %=(1−TVCt/TVCc)×100 TVC=(individual tumor volume on test end day)−(individual tumor volume on grouping day)
TVCt: average of TVC values of administration group […]

The subject of assay [7] is TE-8 cells. The assay can be described thus: Antitumor activity in TE-8 cell subcutaneous transplant model (Test Example 5). Format: in vivo, female BALB/c-nu/nu mice. To be noted: TE-8 subcutaneous transplant model, dose 2 mg/kg/day, test end day.
Text: [Test Example 5] Evaluation of Antitumor Activity in TE-8 Cell Subcutaneous Transplant Model
TE-8 cells were transplanted at a rate of 1×10^7 cells/head subcutaneously into a right abdominal site of each of female BALB/c-nu/nu mice, and 9 days after (Example 73) or 10 days after (Examples 35 and 84), the mice were grouped into groups each consisting of 5 mice based on an estimated tumor volume (longer diameter×shorter diameter×shorter diameter/2) and the weight. The TE-8 cells were purchased from Riken Cell Bank. The female BALB/c-nu/nu mice were purchased from Charles River Laboratories Japan, Inc.
From the day of grouping, the compound of Example 73 at a dose set to 2 mg/kg/day was orally administered in accordance with a schedule of twice a day continuously for 9 days (BID x 9). The estimated tumor volume of each individual was measured from the day of grouping until 18 days after the transplantation (test end day).
Besides, from the day of grouping, the compound of […] at a dose set to 2 mg/kg/day was orally administered in accordance with a schedule of twice a day continuously for 11 days (BID x 11). The estimated tumor volume of each individual was measured from the day of grouping until 21 days after the transplantation (test end day).
as §3
TVCt: average of TVC values of administration group
TVCc: average of TVC values of non-administration group

The structures appear in SMILES notation.

CREBBP, sequence (Q92793 whole entry): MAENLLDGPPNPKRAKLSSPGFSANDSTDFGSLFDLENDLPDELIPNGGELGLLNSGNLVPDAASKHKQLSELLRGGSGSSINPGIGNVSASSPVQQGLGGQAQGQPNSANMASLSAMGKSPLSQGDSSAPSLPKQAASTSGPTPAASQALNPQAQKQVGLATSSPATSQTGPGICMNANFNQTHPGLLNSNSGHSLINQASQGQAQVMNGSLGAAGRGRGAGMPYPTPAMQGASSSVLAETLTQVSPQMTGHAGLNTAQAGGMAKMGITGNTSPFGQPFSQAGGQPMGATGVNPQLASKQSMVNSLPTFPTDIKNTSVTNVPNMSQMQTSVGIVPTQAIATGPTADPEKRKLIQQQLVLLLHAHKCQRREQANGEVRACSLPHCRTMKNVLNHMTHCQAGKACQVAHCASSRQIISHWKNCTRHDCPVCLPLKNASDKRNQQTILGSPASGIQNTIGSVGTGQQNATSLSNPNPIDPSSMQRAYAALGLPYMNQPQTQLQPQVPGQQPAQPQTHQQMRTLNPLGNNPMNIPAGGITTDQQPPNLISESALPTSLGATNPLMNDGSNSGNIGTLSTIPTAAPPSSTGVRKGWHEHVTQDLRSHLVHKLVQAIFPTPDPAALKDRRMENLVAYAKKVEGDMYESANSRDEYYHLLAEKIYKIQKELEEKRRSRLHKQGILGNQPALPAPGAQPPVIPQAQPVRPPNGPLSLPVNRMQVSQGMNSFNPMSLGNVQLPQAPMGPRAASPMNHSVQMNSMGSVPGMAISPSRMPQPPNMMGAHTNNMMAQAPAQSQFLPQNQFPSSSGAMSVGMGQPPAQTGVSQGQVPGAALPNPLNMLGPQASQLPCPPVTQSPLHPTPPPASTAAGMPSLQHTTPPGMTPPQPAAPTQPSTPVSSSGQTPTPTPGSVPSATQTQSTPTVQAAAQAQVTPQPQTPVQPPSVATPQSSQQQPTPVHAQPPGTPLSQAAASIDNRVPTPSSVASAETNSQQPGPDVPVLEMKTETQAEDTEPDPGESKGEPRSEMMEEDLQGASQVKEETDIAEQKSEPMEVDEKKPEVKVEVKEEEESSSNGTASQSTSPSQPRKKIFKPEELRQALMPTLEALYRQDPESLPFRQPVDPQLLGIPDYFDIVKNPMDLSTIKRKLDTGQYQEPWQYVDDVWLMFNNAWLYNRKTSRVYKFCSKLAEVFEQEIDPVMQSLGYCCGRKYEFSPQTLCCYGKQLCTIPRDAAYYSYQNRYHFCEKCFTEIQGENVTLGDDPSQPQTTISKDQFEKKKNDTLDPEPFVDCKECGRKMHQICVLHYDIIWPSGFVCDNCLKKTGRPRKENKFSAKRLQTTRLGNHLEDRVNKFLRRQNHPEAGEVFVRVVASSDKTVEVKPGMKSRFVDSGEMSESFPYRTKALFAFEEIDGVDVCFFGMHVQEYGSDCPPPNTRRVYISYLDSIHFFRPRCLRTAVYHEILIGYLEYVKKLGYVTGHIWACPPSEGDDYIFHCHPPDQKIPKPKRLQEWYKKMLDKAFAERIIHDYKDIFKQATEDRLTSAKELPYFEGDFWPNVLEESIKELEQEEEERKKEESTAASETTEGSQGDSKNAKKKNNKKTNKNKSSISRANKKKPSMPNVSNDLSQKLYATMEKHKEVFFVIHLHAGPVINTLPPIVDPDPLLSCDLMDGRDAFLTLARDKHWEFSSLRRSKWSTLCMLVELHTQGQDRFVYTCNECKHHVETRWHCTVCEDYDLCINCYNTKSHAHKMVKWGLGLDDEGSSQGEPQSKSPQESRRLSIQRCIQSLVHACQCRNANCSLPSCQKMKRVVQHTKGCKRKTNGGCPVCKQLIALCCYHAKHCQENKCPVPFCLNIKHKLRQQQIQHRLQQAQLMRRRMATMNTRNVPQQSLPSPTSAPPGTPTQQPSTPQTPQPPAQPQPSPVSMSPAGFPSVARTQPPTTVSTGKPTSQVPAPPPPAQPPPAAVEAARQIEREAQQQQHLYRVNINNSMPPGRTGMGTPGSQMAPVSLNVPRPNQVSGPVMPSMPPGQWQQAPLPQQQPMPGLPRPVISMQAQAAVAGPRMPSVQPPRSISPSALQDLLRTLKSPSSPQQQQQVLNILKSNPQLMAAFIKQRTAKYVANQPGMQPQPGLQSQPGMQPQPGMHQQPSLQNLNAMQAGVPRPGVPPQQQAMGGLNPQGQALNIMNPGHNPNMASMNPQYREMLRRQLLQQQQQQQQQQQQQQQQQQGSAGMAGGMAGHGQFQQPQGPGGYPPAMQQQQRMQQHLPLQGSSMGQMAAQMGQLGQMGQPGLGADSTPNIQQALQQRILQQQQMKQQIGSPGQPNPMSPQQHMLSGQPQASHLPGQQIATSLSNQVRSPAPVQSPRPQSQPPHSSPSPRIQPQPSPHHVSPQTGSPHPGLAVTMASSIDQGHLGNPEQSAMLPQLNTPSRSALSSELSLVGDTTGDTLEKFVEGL
EP300, sequence (Q09472 whole entry): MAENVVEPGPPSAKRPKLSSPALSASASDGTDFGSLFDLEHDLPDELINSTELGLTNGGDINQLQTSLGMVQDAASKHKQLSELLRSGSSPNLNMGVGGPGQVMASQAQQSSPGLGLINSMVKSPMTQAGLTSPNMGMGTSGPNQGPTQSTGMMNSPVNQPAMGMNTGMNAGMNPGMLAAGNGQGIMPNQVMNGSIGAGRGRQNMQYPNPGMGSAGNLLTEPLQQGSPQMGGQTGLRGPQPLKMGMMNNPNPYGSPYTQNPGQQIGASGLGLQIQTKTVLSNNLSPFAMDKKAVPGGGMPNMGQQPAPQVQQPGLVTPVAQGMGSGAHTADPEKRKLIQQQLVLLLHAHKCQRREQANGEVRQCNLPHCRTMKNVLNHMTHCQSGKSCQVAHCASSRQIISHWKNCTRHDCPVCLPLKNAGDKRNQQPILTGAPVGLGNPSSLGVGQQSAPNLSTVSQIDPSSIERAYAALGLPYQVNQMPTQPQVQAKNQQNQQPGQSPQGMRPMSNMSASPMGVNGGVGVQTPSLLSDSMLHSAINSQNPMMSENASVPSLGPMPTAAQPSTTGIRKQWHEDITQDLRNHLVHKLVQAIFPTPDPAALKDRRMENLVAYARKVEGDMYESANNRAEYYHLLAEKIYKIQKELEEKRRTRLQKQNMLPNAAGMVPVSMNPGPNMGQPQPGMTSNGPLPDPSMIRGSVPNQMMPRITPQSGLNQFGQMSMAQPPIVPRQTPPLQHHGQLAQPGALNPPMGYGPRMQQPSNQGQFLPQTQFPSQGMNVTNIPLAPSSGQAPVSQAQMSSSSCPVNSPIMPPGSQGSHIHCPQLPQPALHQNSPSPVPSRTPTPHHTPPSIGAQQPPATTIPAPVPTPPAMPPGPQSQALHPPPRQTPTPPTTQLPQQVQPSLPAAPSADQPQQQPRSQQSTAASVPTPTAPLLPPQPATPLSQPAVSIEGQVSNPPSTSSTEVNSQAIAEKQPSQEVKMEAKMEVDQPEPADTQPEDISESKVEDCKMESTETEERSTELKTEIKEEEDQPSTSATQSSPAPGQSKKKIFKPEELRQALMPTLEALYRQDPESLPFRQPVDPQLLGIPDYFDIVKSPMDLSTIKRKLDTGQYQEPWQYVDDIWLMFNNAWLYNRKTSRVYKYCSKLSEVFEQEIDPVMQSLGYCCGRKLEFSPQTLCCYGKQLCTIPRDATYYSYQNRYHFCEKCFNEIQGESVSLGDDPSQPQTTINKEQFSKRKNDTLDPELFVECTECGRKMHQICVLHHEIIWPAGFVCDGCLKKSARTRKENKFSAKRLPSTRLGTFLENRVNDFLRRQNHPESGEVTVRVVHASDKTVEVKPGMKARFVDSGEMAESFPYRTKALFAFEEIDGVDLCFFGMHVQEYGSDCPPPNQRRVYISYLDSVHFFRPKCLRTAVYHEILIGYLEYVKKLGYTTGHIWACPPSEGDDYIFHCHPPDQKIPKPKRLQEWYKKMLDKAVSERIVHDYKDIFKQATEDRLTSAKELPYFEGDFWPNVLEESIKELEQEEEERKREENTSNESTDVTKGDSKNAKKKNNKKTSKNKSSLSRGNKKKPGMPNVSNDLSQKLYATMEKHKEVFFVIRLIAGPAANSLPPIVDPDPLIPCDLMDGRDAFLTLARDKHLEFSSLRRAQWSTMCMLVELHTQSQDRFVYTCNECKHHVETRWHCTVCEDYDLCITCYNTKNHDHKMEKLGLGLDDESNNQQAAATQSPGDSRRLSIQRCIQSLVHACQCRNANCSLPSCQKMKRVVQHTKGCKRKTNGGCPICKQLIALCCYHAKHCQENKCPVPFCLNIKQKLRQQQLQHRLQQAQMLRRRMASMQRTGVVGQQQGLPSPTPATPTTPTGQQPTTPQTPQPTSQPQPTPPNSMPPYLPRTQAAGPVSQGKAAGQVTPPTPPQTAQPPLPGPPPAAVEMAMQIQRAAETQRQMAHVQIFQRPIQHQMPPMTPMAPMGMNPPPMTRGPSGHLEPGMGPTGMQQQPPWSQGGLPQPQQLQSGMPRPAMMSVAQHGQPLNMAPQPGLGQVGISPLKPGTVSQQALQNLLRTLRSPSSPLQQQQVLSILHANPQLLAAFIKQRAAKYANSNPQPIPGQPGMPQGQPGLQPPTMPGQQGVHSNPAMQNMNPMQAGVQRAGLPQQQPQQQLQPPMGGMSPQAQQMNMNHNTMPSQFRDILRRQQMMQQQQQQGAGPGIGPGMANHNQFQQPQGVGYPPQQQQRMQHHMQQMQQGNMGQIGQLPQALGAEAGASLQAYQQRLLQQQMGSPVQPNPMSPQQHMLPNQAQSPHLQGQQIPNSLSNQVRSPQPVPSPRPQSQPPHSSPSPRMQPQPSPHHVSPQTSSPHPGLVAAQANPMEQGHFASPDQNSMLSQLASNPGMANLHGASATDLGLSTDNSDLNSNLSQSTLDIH

On to `COc1ccc(C2(C(=O)N3C[C@H](F)C[C@@H]3C(=O)Nc3ccc4[nH]ncc4n3)CCCCC2)cc1F` [Example 37, (4R)-4-Fluoro-1-{[1-(3-fluoro-4-methoxyphenyl)cyclohexyl]carbonyl}-N-1H-pyrazolo[4,3-b]pyridin-5-yl-D-prolinamide], for which the figures for the half-inhibitory concentration (IC50) in assay [1], in assay [2] and in assay [3] were 14 nM, 18 nM and 16 nM, respectively. The figures for the concentration for 50% growth inhibition (GI50) in assay [4] and in assay [5] were 85.9 nM and 113 nM, respectively. Also, in assay [6], the “Tumor Growth Inhibition Rate” value came to 42%.
In the case of `COc1ccc(C2(C(=O)N3C[C@H](F)C[C@@H]3C(=O)Nc3ccc4c(n3)CC(=O)N4)CCCCC2)cc1` [Example 66, (4R)-4-Fluoro-1-{[1-(4-methoxyphenyl)cyclohexyl]carbonyl}-N-(2-oxo-2,3-dihydro-1H-pyrrolo[3,2-b]pyridin-5-yl)-D-prolinamide], the IC50 in assay [1] was found to be 35 nM; in assay [2], 73 nM; in assay [3], 17 nM. The 50% growth inhibitory concentration (GI50) came to 548 nM in assay [4] and 847 nM in assay [5]. The “Tumor Growth Inhibition Rate” value in assay [7] was 54%.
As to `COc1ccc(C2(C(=O)N3C[C@H](F)C[C@@H]3C(=O)Nc3ccc4c(n3)CC(=O)N4)CCC(F)(F)CC2)cc1` [Example 73, (4R)-1-{[4,4-Difluoro-1-(4-methoxyphenyl)cyclohexyl]carbonyl}-4-fluoro-N-(2-oxo-2,3-dihydro-1H-pyrrolo[3,2-b]pyridin-5-yl)-D-prolinamide], the concentration for half-maximal inhibition (IC50) in assay [1] was determined as 52 nM; in assay [2] it was 148 nM; in assay [3], 70 nM. Moreover, the results for the GI50 in assay [4] and in assay [5] were 610 nM and 620 nM, respectively. Besides, the “Tumor Growth Inhibition Rate” value in assay [7] worked out at 65%.
In the case of `CC(=O)Nc1ccc(C2(C(=O)N3C[C@H](F)C[C@@H]3C(=O)Nc3ccc4[nH]ncc4n3)CCC(F)(F)CC2)cc1` [Example 101, (4R)-1-({1-[4-(acetylamino)phenyl]-4,4-difluorocyclohexyl}carbonyl)-4-fluoro-N-1H-pyrazolo[4,3-b]pyridin-5-yl-D-prolinamide], the figures for the 50% inhibitory concentration (IC50) in assay [1], in assay [2] and in assay [3] were 120 nM, 235 nM and 240 nM, respectively. Further, the GI50 in assay [4] is 707 nM; in assay [5], 1050 nM.
Taken in the same sequence, the figures for `CS(=O)(=O)Nc1ccc(C2(C(=O)N3C[C@H](F)C[C@@H]3C(=O)Nc3ccc4[nH]ncc4n3)CCC(F)(F)CC2)cc1` [Example 102, (4R)-1-[(4,4-Difluoro-1-{4-[(methylsulfonyl)amino]phenyl}cyclohexyl)carbonyl]-4-fluoro-N-1H-pyrazolo[4,3-b]pyridin-5-yl-D-prolinamide] were 40 nM, 84 nM, 126 nM, 323 nM and 439 nM.
Taken in the same sequence, the figures for `CNCc1cc2nc(NC(=O)[C@H]3C[C@@H](F)CN3C(=O)C3(c4ccc(OC(F)F)cc4)CCC(F)(F)CC3)ccc2[nH]1` [Example 103, (4R)-1-({1-[4-(Difluoromethoxy)phenyl]-4,4-difluorocyclohexyl}carbonyl)-4-fluoro-N-{2-[(methylamino)methyl]-1H-pyrrolo[3,2-b]pyridin-5-yl}-D-prolinamide] were 41 nM, 77 nM, 34 nM, 184 nM and 304 nM.
The like results for `O=C(Nc1ccc2[nH]ncc2n1)[C@H]1C[C@@H](F)CN1C(=O)C1(c2ccc(NS(=O)(=O)c3ccccc3)cc2)CCC(F)(F)CC1` [Example 104, (4R)-1-[(4,4-Difluoro-1-{4-[(phenylsulfonyl)amino]phenyl}cyclohexyl)carbonyl]-4-fluoro-N-1H-pyrazolo[4,3-b]pyridin-5-yl-D-prolinamide] were, in that order, 26 nM, 58 nM, 138 nM, 512 nM and 656 nM.
Consider `COCc1cc2nc(NC(=O)[C@H]3C[C@@H](F)CN3C(=O)C3(c4ccc(OC(F)F)cc4)CCC(F)(F)CC3)ccc2[nH]1` [Example 105, (4R)-1-({1-[4-(Difluoromethoxy)phenyl]-4,4-difluorocyclohexyl}carbonyl)-4-fluoro-N-[2-(methoxymethyl)-1H-pyrrolo[3,2-b]pyridin-5-yl]-D-prolinamide], for which the IC50 came out at 50 nM in assay [1], 78 nM in assay [2] and 192 nM in assay [3]. The GI50 in assay [4] was determined as 753 nM; in assay [5], 989 nM.
Taken in the same sequence, the figures for `O=C(Nc1ccc2[nH]c(CO)cc2n1)[C@H]1C[C@@H](F)CN1C(=O)C1(c2ccc(OC(F)F)cc2)CCC(F)(F)CC1` [Example 106, (4R)-1-({1-[4-(Difluoromethoxy)phenyl]-4,4-difluorocyclohexyl}carbonyl)-4-fluoro-N-[2-(hydroxymethyl)-1H-pyrrolo[3,2-b]pyridin-5-yl]-D-prolinamide] were 24 nM, 43 nM, 39 nM, 250 nM and 337 nM.
The like results for `COc1ccc(C2(C(=O)N(C)[C@H](CO)C(=O)Nc3ccc4[nH]ncc4n3)CCC(F)(F)CC2)cc1` [Example 107, 4,4-Difluoro-N-[(2R)-3-hydroxy-1-oxo-1-(1H-pyrazolo[4,3-b]pyridin-5-ylamino)propan-2-yl]-1-(4-methoxyphenyl)-N-methylcyclohexanecarboxamide] were, in that order, 49 nM, 155 nM, 14 nM, 99.9 nM and 195 nM.

In general, IC50 refers to the concentration that gives 50% inhibition. One may read the GI50 as the concentration giving 50% growth inhibition. The low end stands for more potent growth inhibition, the high end for less potent growth inhibition.

The values are drawn from patent US11274100B2, “EP300/CREBBP inhibitor” (Daiichi Sankyo Company, Limited, priority 2017, dated 2022).
